# Reference: paper PMC11881035, “^68Ga-Labeled Glycopeptides as Effective Tools for Liver Function Imaging” (Molecular Pharmaceutics, 2025)
# Like-named read-outs stand apart in the source and are kept apart here. Where a SMILES comes first, the peptide text is derived from it. The star is where a group is joined. X1 = O=C(CCCCc1cn([C@@H]2O[C@H](CO)[C@H](O)[C@H](O)[C@H]2O)nn1)*; NODAGA = O=C(O)CN1CCN(CC(=O)O)CCN(C(CCC(=O)*)C(=O)O)CC1; GABA = NCCCC(=O)O
# What was measured:
# [1] = complex stability in human blood serum; type: in vitro ADME
# Method: (§1) The ^68Ge/^68Ga generator, devices for analytical HPLC, semipreparative HPLC, mass spectrometry, radio-thin layer chromatography, gamma counter and animal models for biodistribution and imaging studies including the image reconstruction procedures were the same as described before.[22] Stability assays in PBS and human blood serum, protein binding as well as determination of log D values followed established protocols.[25] Binding affinities (IC50) of selected ligands were determined in an isolated receptor-based assay according to a previously published procedure with minor modifications.[22] Dilutions of nonradioactive complexes were made with PBS + 0.1% BSA (10^–5–10^–12 M). Preparation of [^125I]I-Asialoorosomucoid which serves as the radioactive standard ligand has been published recently.[21]
# complex stability in PBS = type: physicochemical
# Method: as §1
# [2] = protein binding in human serum; type: in vitro ADME; settings: for fraction unbound: human, serum, read-out: protein binding (%) (converted)
# Method: as §1
# log D determination = type: physicochemical; settings: read-out: log D
# Method: as §1
# [3] = biodistribution in healthy BALB/c mice; settings: mouse, in vivo; for tissue uptake at 10 min: 10 min p.i.; for tissue uptake at 0.5 h: 30 min p.i.; for tissue uptake at 1 h: 60 min p.i.
# Method: as §1
# Animal experiments were performed in accordance with the Austrian animal experiments law (BGBl. I Nr. 114/2012) and the institution’s animal welfare standards as approved by the Austrian Federal Ministry of Education, Science and Research (BMBWF, 2022–0.311.708). Imaging experiments were conducted at Werner Siemens Imaging Center (Tübingen, Germany) according to the German animal welfare act as approved by the local authorities (R5/19 G, R09/21 G).
# Figure 2 Biodistribution data (% ID/g) of ^68Ga-labeled NODAGA-GalNAc-NonaLysan, NODAGA-NonaLysan, NODAGA-HexaLysan, and NODAGA-TriLysan in healthy BALB/c mice at 10, 30, and 60 min p.i. (100 pmol, 1 MBq).
# ASGR = biological target: T1, ASGR (Mus musculus, UniProt P24721+P34927); assay: blocking experiment, coinjection of N-acetylgalactosamine, biodistribution in BALB/c mice; settings: in vivo, 30 min p.i., 27.7 μmol N-acetylgalactosamine
# T1 construct: from tissue; host or cells: liver and other organs of living healthy female BALB/c mice
# T1 sequence (P34927 1-284): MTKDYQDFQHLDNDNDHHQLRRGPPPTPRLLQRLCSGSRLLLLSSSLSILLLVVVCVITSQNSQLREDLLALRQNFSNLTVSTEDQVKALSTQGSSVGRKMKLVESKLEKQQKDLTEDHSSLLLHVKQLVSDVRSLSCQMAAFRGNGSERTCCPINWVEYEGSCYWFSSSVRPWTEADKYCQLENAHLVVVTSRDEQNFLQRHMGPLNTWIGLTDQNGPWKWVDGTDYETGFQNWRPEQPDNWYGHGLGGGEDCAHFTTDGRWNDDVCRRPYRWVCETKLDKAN
# T1 sequence (P24721 1-301): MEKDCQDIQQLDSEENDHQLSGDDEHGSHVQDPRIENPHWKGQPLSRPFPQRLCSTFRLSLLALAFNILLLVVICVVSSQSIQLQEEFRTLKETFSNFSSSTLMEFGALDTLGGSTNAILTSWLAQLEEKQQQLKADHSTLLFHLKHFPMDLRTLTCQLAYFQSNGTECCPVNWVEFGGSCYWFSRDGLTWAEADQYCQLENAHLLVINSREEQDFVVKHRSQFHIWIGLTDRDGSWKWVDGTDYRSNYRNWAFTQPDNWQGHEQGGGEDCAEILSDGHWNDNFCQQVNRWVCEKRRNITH
# Method: Less liver uptake was found for [^68Ga]Ga-NODAGA-HexaLysan (55.5 ± 7.4% ID/g, 30 min p.i.) and least for [^68Ga]Ga-NODAGA-TriLysan (9.4 ± 2.0% ID/g, 30 min p.i.). […] However, an increasing activity accumulation in the intestine was found for [^68Ga]Ga-NODAGA-NonaLysan, [^68Ga]Ga-NODAGA-GalNAc-Nonalysan, and [^68Ga]Ga-NODAGA-HexaLysan over time. Nevertheless, liver-to-organ ratios were highest for [^68Ga]Ga-NODAGA-NonaLysan (Figure 3). Lower liver-to-organ ratios were found for the GalNAc derivative due to higher off-target binding in the pancreas, stomach, heart, muscle, lung, and femur. […] Coinjection of both nonamers with a large excess of N-acetylgalactosamine led to a statistically significant reduction of liver uptake indicating specific interactions of the tracers with their target (Figure 4). As a consequence of the reduced liver uptake also a reduction of the intestinal uptake was observed.
# Figure 4 Data (% ID/g) from the blocking experiments using ^68Ga-labeled NODAGA-GalNAc-NonaLysan and NODAGA-NonaLysan in healthy BALB/c mice at 30 min p.i. Blocking was carried out using 27.7 μmol of N-acetylgalactosamine (**p ≤ 0.01; *p ≤ 0.05).
smiles,measurement,setting,value
"NC(=O)CNC(=O)CNC(=O)[C@H](CCCCNC(=O)CCCCc1cn([C@@H]2O[C@H](CO)[C@H](O)[C@H](O)[C@H]2O)nn1)NC(=O)CNC(=O)CNC(=O)[C@H](CCCCNC(=O)CCCCc1cn([C@@H]2O[C@H](CO)[C@H](O)[C@H](O)[C@H]2O)nn1)NC(=O)CNC(=O)CNC(=O)[C@H](CCCCNC(=O)CCCCc1cn([C@@H]2O[C@H](CO)[C@H](O)[C@H](O)[C@H]2O)nn1)NC(=O)CNC(=O)CNC(=O)[C@H](CCCCNC(=O)CCCCc1cn([C@@H]2O[C@H](CO)[C@H](O)[C@H](O)[C@H]2O)nn1)NC(=O)CNC(=O)CNC(=O)[C@H](CCCCNC(=O)CCCCc1cn([C@@H]2O[C@H](CO)[C@H](O)[C@H](O)[C@H]2O)nn1)NC(=O)CNC(=O)CNC(=O)[C@H](CCCCNC(=O)CCCCc1cn([C@@H]2O[C@H](CO)[C@H](O)[C@H](O)[C@H]2O)nn1)NC(=O)CNC(=O)CNC(=O)[C@H](CCCCNC(=O)CCCCc1cn([C@@H]2O[C@H](CO)[C@H](O)[C@H](O)[C@H]2O)nn1)NC(=O)CNC(=O)CNC(=O)[C@H](CCCCNC(=O)CCCCc1cn([C@@H]2O[C@H](CO)[C@H](O)[C@H](O)[C@H]2O)nn1)NC(=O)CNC(=O)CNC(=O)[C@H](CCCCNC(=O)CCCCc1cn([C@@H]2O[C@H](CO)[C@H](O)[C@H](O)[C@H]2O)nn1)NC(=O)CCCNC(=O)CCC(C(=O)O)N1CCN(CC(=O)O)CCN(CC(=O)O)CC1 (stereo partly shown) [[^68Ga]Ga-NODAGA-NonaLysan, metal not drawn] ({NODAGA-GABA}-K(X1)GGK(X1)GGK(X1)GGK(X1)GGK(X1)GGK(X1)GGK(X1)GGK(X1)GGK(X1)GG-NH2)",complex stability in serum (% intact ligand),[1]; 2 min,99.5 ± 0.1%
same,complex stability in serum (% intact ligand),[1]; 30 min,99.5 ± 0.1%
same,complex stability in serum (% intact ligand),[1]; 60 min,99.5 ± 0.1%
same,complex stability in serum (% intact ligand),[1]; 120 min,99.6%
same,complex stability in PBS (% intact ligand),complex stability in PBS; 2 min,99.6%
same,complex stability in PBS (% intact ligand),complex stability in PBS; 30 min,99.4%
same,complex stability in PBS (% intact ligand),complex stability in PBS; 60 min,99.3%
same,complex stability in PBS (% intact ligand),complex stability in PBS; 120 min,99.3%
same,protein binding (%),[2]; 120 min,21.5 ± 3.4%
same,fraction unbound,[2]; 2 min,0.847
same,fraction unbound,[2]; 30 min,0.717
same,fraction unbound,[2]; 60 min,0.737
same,fraction unbound,[2]; 120 min,0.813
same,logD,log D determination,-4.06
same,tissue uptake at 10 min,[3]; read-out: Blood uptake,0.4 ± 0.03 %ID/g
same,tissue uptake at 10 min,[3]; read-out: Femur uptake,0.3 ± 0.02 %ID/g
same,tissue uptake at 10 min,[3]; read-out: Heart uptake,0.4 ± 0.04 %ID/g
same,tissue uptake at 10 min,[3]; read-out: Intestine uptake,0.8 ± 0.2 %ID/g
same,tissue uptake at 10 min,[3]; read-out: Kidneys uptake,1.2 ± 0.1 %ID/g
same,tissue uptake at 10 min,[3]; read-out: Liver uptake,71.2 ± 0.4 %ID/g
same,tissue uptake at 10 min,[3]; read-out: Lung uptake,0.9 ± 0.1 %ID/g
same,tissue uptake at 10 min,[3]; read-out: Muscle uptake,0.6 ± 0.1 %ID/g
same,tissue uptake at 10 min,[3]; read-out: Pancreas uptake,0.8 ± 0.1 %ID/g
same,tissue uptake at 10 min,[3]; read-out: Spleen uptake,0.6 ± 0.2 %ID/g
same,tissue uptake at 10 min,[3]; read-out: Stomach uptake,0.7 ± 0.2 %ID/g
same,tissue uptake at 0.5 h,[3]; read-out: Blood uptake,0.2 ± 0.04 %ID/g
same,tissue uptake at 0.5 h,[3]; read-out: Femur uptake,0.3 ± 0.1 %ID/g
same,tissue uptake at 0.5 h,[3]; read-out: Heart uptake,0.4 ± 0.04 %ID/g
same,tissue uptake at 0.5 h,[3]; read-out: Intestine uptake,5.6 ± 0.2 %ID/g
same,tissue uptake at 0.5 h,[3]; read-out: Kidneys uptake,0.8 ± 0.03 %ID/g
same,tissue uptake at 0.5 h,[3]; read-out: Liver uptake,79.6 ± 8 %ID/g
same,tissue uptake at 0.5 h,[3]; read-out: Lung uptake,0.7 ± 0.1 %ID/g
same,tissue uptake at 0.5 h,[3]; read-out: Muscle uptake,0.7 ± 0.03 %ID/g
same,tissue uptake at 0.5 h,[3]; read-out: Pancreas uptake,0.9 ± 0.1 %ID/g
same,tissue uptake at 0.5 h,[3]; read-out: Spleen uptake,0.2 ± 0.03 %ID/g
same,tissue uptake at 0.5 h,[3]; read-out: Stomach uptake,1.2 ± 0.4 %ID/g
same,tissue uptake at 1 h,[3]; read-out: Blood uptake,0.2 ± 0.1 %ID/g
same,tissue uptake at 1 h,[3]; read-out: Femur uptake,0.2 ± 0.01 %ID/g
same,tissue uptake at 1 h,[3]; read-out: Heart uptake,0.5 ± 0.1 %ID/g
same,tissue uptake at 1 h,[3]; read-out: Intestine uptake,7.9 ± 0.5 %ID/g
same,tissue uptake at 1 h,[3]; read-out: Kidneys uptake,1 ± 0.2 %ID/g
same,tissue uptake at 1 h,[3]; read-out: Liver uptake,69.6 ± 1 %ID/g
same,tissue uptake at 1 h,[3]; read-out: Lung uptake,0.9 ± 0.1 %ID/g
same,tissue uptake at 1 h,[3]; read-out: Muscle uptake,0.6 ± 0.1 %ID/g
same,tissue uptake at 1 h,[3]; read-out: Pancreas uptake,1.2 ± 0.2 %ID/g
same,tissue uptake at 1 h,[3]; read-out: Spleen uptake,0.5 ± 0.03 %ID/g
same,tissue uptake at 1 h,[3]; read-out: Stomach uptake,1.8 ± 1 %ID/g
same,tissue uptake at 0.5 h,ASGR; read-out: Blood uptake,0.3 ± 0.2 %ID/g
same,tissue uptake at 0.5 h,ASGR; read-out: Femur uptake,0.2 ± 0.01 %ID/g
same,tissue uptake at 0.5 h,ASGR; read-out: Heart uptake,0.3 ± 0.03 %ID/g
same,tissue uptake at 0.5 h,ASGR; read-out: Intestine uptake,2.2 ± 0.2 %ID/g
same,tissue uptake at 0.5 h,ASGR; read-out: Kidneys uptake,2 ± 0.8 %ID/g
same,tissue uptake at 0.5 h,ASGR; read-out: Liver uptake,48 ± 1.1 %ID/g
same,tissue uptake at 0.5 h,ASGR; read-out: Lung uptake,0.6 ± 0.1 %ID/g
same,tissue uptake at 0.5 h,ASGR; read-out: Muscle uptake,0.4 ± 0.04 %ID/g
same,tissue uptake at 0.5 h,ASGR; read-out: Pancreas uptake,0.5 ± 0.1 %ID/g
same,tissue uptake at 0.5 h,ASGR; read-out: Spleen uptake,0.3 ± 0.2 %ID/g
same,tissue uptake at 0.5 h,ASGR; read-out: Stomach uptake,0.9 ± 0.3 %ID/g
